These are literature values, as cited in patent publication US12383593B2, “Organic pain relief and hair growth composition” (The Tao Talit Corporation, priority 2021, dated 2025).

For one data set, the system named is orofacial nociception. The note with it: in comparison with S. lavandulifolia essential oil.
Data set [1] relates to MAPKs and the NF-κB pathway. Conditions: mouse peritoneal macrophages.
Data set [2] has as its system capsaicin irritancy, sprains, heat hypersensitivity and headaches.

For the molecule `C=C1C2CCC(C2)C1(C)C` (stereo not drawn) [Camphene], the “solubility in organic solvents” value is given as “very soluble” and the solubility in water result is on record as “nearly insoluble”.

On to `C=C(C)[C@H]1CC=C(C)CC1` [limonene, Limonene], for which the “action on a lymphoma cell line” value in the data set on lymphoma cell line (lymphoma cell line) is given as “anti-proliferative action”. For the same molecule, the normal lymphocyte viability entry in the data set on lymphoma cell line (normal lymphocytes) is given as “without modifying normal lymphocyte viability”.

`CC(C)=CCCC(C)(O)C1CC=C(C)CC1` (stereo not drawn) [(−)-α-bisabolol, 6-methyl-2-(4-methylcyclohex-3-en-1-yl)-hept-5-en-2-ol]: the solubility in ethanol result (ethanol) was “soluble”. Also, the “solubility in water and glycerin” value (water and glycerin) was “poorly soluble”. The “antinociceptive effect in the pain models” value with orofacial nociception was “stronger effect”.

As for `CC1=CCC2CC1C2(C)C` (stereo not drawn) [Alpha-pinene, α-pinene], the anti-inflammatory activity entry in data set [1] was “anti-inflammatory activity through the suppression of mitogen-activated protein kinases (MAPKs) and the nuclear factor-kappa B (NF-κB) pathway”.

As for `Cc1ccc(C(C)C)cc1` [p-Cymene], the “solubility in organic solvents” value was “miscible” and the solubility in water entry was “insoluble”.

With `CC1CCC(C(C)C)C(O)C1` (stereo not drawn) [menthol, Menthol], the “cold allodynia and hyperalgesia” value in data set [2] (high concentrations, topical use or intraplantar injection) is “generated cold allodynia and hyperalgesia”. The “analgesic effect of topically applied menthol” value in data set [2] (low to moderate concentrations, topical) is “inhibit capsaicin irritancy, sprains, heat hypersensitivity and headaches”.
